{"source": "patent US9701670B2", "about": "“Pyrazolyl-ureas as kinase inhibitors” (RESPIVERT LIMITED, priority 2013, dated 2017)", "key": {"[1]": {"test": "Pharmacokinetics and total colon tissue distribution in mice", "assay_type": "in vivo, male C57BL/6 mice", "conditions": "male, Mouse, 5 mg/kg p.o.", "protocol": "Studies were conducted by Sai Life Sciences (Hinjewadi, Pune, India) to investigate the pharmacokinetics and total colon tissue distribution of the compound of Example 77 in male C57BL/6 mice following a single oral administration.\nA group of twenty one male mice were dosed with a suspension formulation (in peanut oil) of the compound of Example 77, at a dose of 5 mg/kg. Blood samples (approximately 60 μL) were collected from retro orbital plexus such that the samples were obtained at 1, 2, 4, 6, 8, 12 and 24 hr. The blood samples were collected from a set of three mice at each time point in labelled micro centrifuge tube containing K2EDTA as anticoagulant. Plasma samples were separated by centrifugation at 4000 rpm for 10 min of whole blood and stored below −70° C. until bioanalysis. After collection of blood sample, animals were humanely euthanized by carbon dioxide asphyxiation to collect total colon tissues. The colons were flushed with cold phosphate buffer saline (pH 7.4) to remove contents. The total colon tissues were homogenized with cold phosphate buffer saline (pH 7.4) of twice the weight of colon tissue and stored below −70° C. Total volume was three times the total colon tissue weights. All samples were processed for analysis by protein precipitation using acetonitrile and analyzed with developed LC-MS/MS method (LLOQ: 2.02 ng/mL in plasma and 1.01 ng/mL in colon tissue). Pharmacokinetic parameters were calculated using the non-compartmental analysis tool of Phoenix WinNonlin® software (version 6.3)."}, "[2]": {"test": "Pharmacokinetics, plasma and total colon tissue distribution in rats", "assay_type": "in vivo, male Wistar rats", "conditions": "Rat", "protocol": "A study was conducted by Sai Life Sciences (Hinjewadi, Pune, India) to investigate the pharmacokinetics, as well as plasma and total colon tissue distribution of the compound of Example 77 in male Wistar rats following a single intravenous or oral administration.\n30 male Wistar rats were divided into two groups: Group I (p.o.: 5 mg/kg; 27 rats) and Group II (i.v.: 0.25 mg/kg; 3 rats). Animals in Group I were administered orally with an aqueous suspension formulation (having 2% HPMC and 0.5% Tween 80) of the compound of Example 77, at a dose of 5 mg/kg. Animals in Group II were administered intravenously with a solution formulation (in 5% v/v DMSO, 7.5% w/v Solutol HS 15 and 87.5% saline (0.9% w/v NaCl)) of the compound of Example 77 at a dose of 0.25 mg/kg. From each rat, blood samples (approximately 120 μL) were collected from retro orbital plexus such that samples were obtained at pre-dose, 0.05, 0.13, 0.25, 0.5, 1, 2, 4, 8, and 24 hr (i.v.) and pre-dose, 0.5, 1, 2, 4, 6, 8, 12 and 24 hr (p.o.). Immediately after collection, plasma was harvested from blood by centrifugation and stored at −70° C. until analysis. Following collection of blood sample, the animals (Group I) were humanely euthanized by carbon dioxide asphyxiation. The total colon was isolated, flushed with cold phosphate buffer saline (pH 7.4) to remove contents and weighed. The total colon tissues homogenized with ice-cold phosphate buffered saline, pH 7.4. Buffer volume to be used for homogenization was twice the weight of tissue. All the samples were stored below −70° C. until bioanalysis. Total colon tissue homogenate volume was three times. Plasma and total colon tissue samples were quantified by LC-MS/MS method (LLOQ in plasma and total colon tissue=0.5 ng/mL)"}, "[3]": {"tested_on": "71 receptors and 26 enzymes", "test": "Diversity Profile (Cerep)", "assay_type": "binding", "conditions": "300 nM", "protocol": "Studies were conducted by Cerep (Celle-Lévescault, France) to investigate the binding of the compound of Example 77 to a diverse selection of receptors and to investigate either the inhibition or activation of a selection of enzymes (the “Diversity Profile” comprising a total of 71 receptors and 26 enzymes)."}, "[4]": {"tested_on": "Salmonella typhimurium, strains TA98 and TA100", "test": "Mutagenicity assessment (bacterial reverse mutation screen)", "assay_type": "cell-based", "conditions": "TA98 and TA100, presence or absence of S-9 mix, up to 5000 μg/plate", "protocol": "Studies were conducted by Sequani (Ledbury, Herefordshire, UK) to assess the compound of Example 77 in vitro for its ability to induce mutations in two histidine dependent auxotrophic mutants of Salmonella typhimurium, strains TA98 and TA100.\nThe mutation screen was conducted using the plate incorporation method and was performed in both the presence and absence of S-9 mix (a liver post-mitochondrial fraction derived from the livers of Aroclor 1254 treated rats). The bacteria were exposed to the compound of Example 77 dissolved in dimethylsulphoxide, which solvent was also used as the negative control. The dose levels used were 0.32, 1.6, 8, 40, 200, 1000 or 5000 μg/plate."}, "[5]": {"target": "p38 MAPKα isoform (MAPK14) (Homo sapiens (Human), UniProt Q16539)", "sequence (Q16539 whole entry, canonical isoform)": "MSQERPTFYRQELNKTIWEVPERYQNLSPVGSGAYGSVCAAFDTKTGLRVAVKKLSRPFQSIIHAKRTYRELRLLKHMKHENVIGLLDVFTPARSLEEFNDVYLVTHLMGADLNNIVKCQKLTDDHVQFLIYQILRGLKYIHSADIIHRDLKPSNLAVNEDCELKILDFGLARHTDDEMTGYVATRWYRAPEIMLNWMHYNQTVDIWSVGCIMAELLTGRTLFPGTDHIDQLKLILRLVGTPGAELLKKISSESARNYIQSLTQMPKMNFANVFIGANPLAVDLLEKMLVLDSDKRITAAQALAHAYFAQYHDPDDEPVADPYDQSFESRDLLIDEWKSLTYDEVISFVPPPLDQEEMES", "test": "p38 MAPKα enzyme inhibition (FRET, Z-LYTE), Method 2", "assay_type": "biochemical", "conditions": "Method 2, different laboratory (Table 4a2)"}, "[6]": {"conditions": "C57BL/6, total colon tissue, po, Total colon"}, "[7]": {"conditions": "male, Wistar, plasma, intravenous 0.25 mg/kg"}, "[8]": {"conditions": "male, Wistar, po, 5 mg/kg p.o., Plasma"}, "[9]": {"conditions": "male, Wistar, total colon tissue, po, 5 mg/kg p.o., Total colon"}}}
{"smiles": "C#Cc1cc(Nc2nccc(Oc3ccc(NC(=O)Nc4cc(C(C)(C)C)nn4-c4ccc(OC)cc4)c4ccccc34)n2)cc(C(=O)NCCN2CCOCC2)c1", "note": "[Example 77, 3-((4-((4-(3-(3-(tert-Butyl)-1-(4-methoxyphenyl)-1H-pyrazol-5-yl)ureido)-naphthalen-1-yl)oxy)pyrimidin-2-yl)amino)-5-ethynyl-N-(2-morpholinoethyl)benzamide]", "values": [{"measurement": "AUC(0-inf)", "setting": "[1]; C57BL/6, po, Plasma", "result": 29, "unit": "ng·h/mL"}, {"measurement": "AUC(0-t)", "setting": "[1]; C57BL/6, po, Plasma", "result": 22, "unit": "ng·h/mL"}, {"measurement": "Cmax", "setting": "[1]; C57BL/6, po, Plasma", "result": 3.5, "unit": "ng/mL"}, {"measurement": "Tmax", "setting": "[1]; C57BL/6, po, Plasma", "result": 1, "unit": "h"}, {"measurement": "AUC(0-inf)", "setting": "[1]; [6]", "result": 9280, "unit": "ng·h/mL"}, {"measurement": "AUC(0-t)", "setting": "[1]; [6]", "result": 7480, "unit": "ng·h/mL"}, {"measurement": "Cmax", "setting": "[1]; [6]", "result": 1070, "unit": "ng/mL"}, {"measurement": "Tmax", "setting": "[1]; [6]", "result": 4, "unit": "h"}, {"measurement": "Fpo", "setting": "[2]; 5 mg/kg p.o., Plasma", "result": 0.1, "unit": "%"}, {"measurement": "AUC(0-inf)", "setting": "[2]; [7]", "result": 1190, "unit": "ng·h/mL"}, {"measurement": "AUC(0-t)", "setting": "[2]; [7]", "result": 1180, "unit": "ng·h/mL"}, {"measurement": "C0", "setting": "[2]; [7]", "result": 4030, "unit": "ng/mL"}, {"measurement": "Vd", "setting": "[2]; [7]", "result": 0.1, "unit": "L/kg"}, {"measurement": "clearance", "setting": "[2]; [7]", "result": 3.5, "unit": "mL/min/kg"}, {"measurement": "half-life", "setting": "[2]; [7]", "result": 0.8, "unit": "h"}, {"measurement": "AUC(0-inf)", "setting": "[2]; [8]", "result": 17.5, "unit": "ng·h/mL"}, {"measurement": "AUC(0-t)", "setting": "[2]; [8]", "result": 17.5, "unit": "ng·h/mL"}, {"measurement": "Cmax", "setting": "[2]; [8]", "result": 2.5, "unit": "ng/mL"}, {"measurement": "Tmax", "setting": "[2]; [8]", "result": 6, "unit": "h"}, {"measurement": "AUC(0-inf)", "setting": "[2]; [9]", "result": 20700, "unit": "ng·h/mL"}, {"measurement": "AUC(0-t)", "setting": "[2]; [9]", "result": 20500, "unit": "ng·h/mL"}, {"measurement": "Cmax", "setting": "[2]; [9]", "result": 2500, "unit": "ng/mL"}, {"measurement": "Tmax", "setting": "[2]; [9]", "result": 4, "unit": "h"}, {"measurement": "inhibition of the control specific binding in the receptor binding assays or enzyme assays", "setting": "[3]", "result": "less than 25%"}, {"measurement": "ability to induce mutations (revertant colonies)", "setting": "[4]", "result": "no dose-related or statistically significant increases in revertant colonies"}, {"measurement": "IC50", "setting": "[5]", "result": 22, "unit": "nM"}]}
